Laboratory results from paper PMC6355826 (EBioMedicine, 2018).

Columns and labels:
[1] = target: T1, methionine adenosyltransferase 2A (MAT2A) (Homo sapiens, UniProt P31153); assay: microscale thermophoresis; format: binding
[2] = target: T1, methionine adenosyltransferase 2A (MAT2A); assay: HPLC SAM synthesis assay with purified MAT2A; format: biochemical

T1 sequence (P31153 whole entry): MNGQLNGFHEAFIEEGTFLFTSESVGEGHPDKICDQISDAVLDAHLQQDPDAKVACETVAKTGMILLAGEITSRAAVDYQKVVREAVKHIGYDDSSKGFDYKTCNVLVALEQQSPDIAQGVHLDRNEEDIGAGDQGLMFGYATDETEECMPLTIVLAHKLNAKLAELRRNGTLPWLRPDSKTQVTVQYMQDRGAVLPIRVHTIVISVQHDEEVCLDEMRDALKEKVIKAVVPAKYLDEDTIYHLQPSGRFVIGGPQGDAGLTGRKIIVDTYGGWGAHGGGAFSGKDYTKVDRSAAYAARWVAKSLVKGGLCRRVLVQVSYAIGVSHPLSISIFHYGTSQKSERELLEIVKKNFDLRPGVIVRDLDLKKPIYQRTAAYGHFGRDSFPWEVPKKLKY

| Structure (SMILES) | Kd [1] | HPLC SAM synthesis assay with purified MAT2A [2] |
| --- | --- | --- |
| CC(=O)O[C@@H]1CC[C@@]2(C)[C@@H](CC[C@]3(C)[C@@H]2C(=O)C=C2[C@@H]4[C@@H](C)[C@H](C)CC[C@]4(C)CC[C@]23C)[C@@]1(C)C(=O)O [compound 1, AKBA] | 129 ± 28 nM | – |
| Nc1ncnc2c1ncn2[C@@H]1O[C@H](COP(=O)(O)OP(=O)(O)OP(=O)(O)O)[C@@H](O)[C@H]1O [ATP] | – | MAT2A was incubated with its substrates which were methionine and ATP, and SAM was formed |
| CSCC[C@H](N)C(=O)O [methionine] | – | MAT2A was incubated with its substrates which were methionine and ATP, and SAM was formed |
